Residue numbers refer to the chain shown, from its start.
Assays:
WT-PAH = biological target: T1, WT-PAH (Homo sapiens, UniProt P00439); assay: Chaperone (refolding) assay: PAH activity after dilution from 6.0 M to 0.5 M GndCl; format: biochemical; details: ligand 20 μM
T1 construct: made in house; the paragraph itself says 'eukaryotic cell cultures' (pMAL vector, Martinez laboratory, University of Bergen)
T1 sequence (P00439 1-452): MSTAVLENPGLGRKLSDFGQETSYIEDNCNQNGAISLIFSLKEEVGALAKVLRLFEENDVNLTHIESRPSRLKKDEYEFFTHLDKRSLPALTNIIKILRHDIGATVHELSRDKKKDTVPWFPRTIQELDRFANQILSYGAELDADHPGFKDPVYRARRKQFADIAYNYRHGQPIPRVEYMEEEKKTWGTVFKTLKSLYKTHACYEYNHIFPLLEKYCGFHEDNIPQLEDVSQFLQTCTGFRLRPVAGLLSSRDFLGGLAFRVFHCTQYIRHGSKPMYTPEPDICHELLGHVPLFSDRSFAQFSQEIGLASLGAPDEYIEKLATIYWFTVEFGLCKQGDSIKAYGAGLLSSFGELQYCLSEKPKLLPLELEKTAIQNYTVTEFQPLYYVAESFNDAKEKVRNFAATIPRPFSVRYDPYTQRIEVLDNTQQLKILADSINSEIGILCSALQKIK
Experimental: (§1) For instance, a recovery of 50% of residual enzyme activity was achieved without ligand when PAH was incubated in 8.0 M urea after its dilution to 0.5 M urea to trigger protein refolding. In order to further reduce enzyme reversibility, the recovery of PAH activity was subsequently assessed when it was incubated using 6.0 M GndCl for 10 min and subsequently diluted to 0.5 M GndCl in the presence or absence of screen-positive ligands (20 μM) in enzyme reaction buffer with PAH activity measurements performed by CE as described previously. […] Two lead compounds and several analogs of SA were subsequently tested using two different mutants of PAH (I65T and R261Q) without chemical denaturants after the two-tiered screening.

R261Q PAH mutant = biological target: T2, R261Q PAH mutant (Homo sapiens, UniProt P00439, R261Q); assay: PKU-mutant activity enhancement without chemical denaturants, CE-UV; format: biochemical; details: ligand 20 μM, no denaturant
T2 construct: made in house; the paragraph itself says 'eukaryotic cell cultures' (pMAL vector)
T2 sequence (P00439 1-452 R261Q): T1 sequence (P00439 1-452) with R261Q
Experimental: Expression of recombinant human WT-PAH and two PAH mutants ([…]) as fusion protein with maltose-binding protein in […] using pMAL expression vector was performed by the Martinez laboratory at the University of Bergen as described in Svebak et al., Biochem. J., 1995, 306, 589-597. Briefly, purification of the fusion proteins expressed in the pMAL vector system was performed using affinity chromatography followed by size-exclusion chromatography to remove low molecular weight components. Subsequently, the fusion proteins were cleaved by the restriction protease factor Xa and then phosphorylated by cyclic adenosine monophosphate (cAMP)-dependent protein kinase. The two clinically relevant PAH mutants, I65T and R261Q comprise single-point mutations in the regulatory and catalytic domain, respectively which are associated with highly variable phenotypes ranging from mild to classical PKU. For instance, patients with R261Q genotypes are reported to have inconsistent responses to BH4 therapy. In this work, I65T and R261Q PAH mutants were measured to have residual catalytic activities of (35±1)% and (5±0.5)% relative to WT PAH under standardized conditions (i.e., enzyme concentrations, assay buffer etc.), respectively. Stock solutions of WT-PAH and PAH mutants were prepared in enzyme reaction buffer (20 mM HEPES pH 7.0, 200 mM NaCl), and divided into separate 10 μL aliquots in 0.5 mL sterilized centrifuge tubes prior to storage at −80° C. Note that all enzyme assays were performed on aliquots of frozen enzymes thawed slowly in the fridge prior to daily use.
Tetrameric human phenylalanine hydroxylase (PAH) enzyme kinetic assays were performed off-line under standardized conditions prior to quantification of Tyr formation by CE with UV detection. Enzyme assays were performed by first mixing together Phe (1 mM), catalase (100 nM) and PAH (0.25 μM/subunit) in a reaction buffer (20 mM HEPES and 200 mM NaCl, pH 7.0) that were equilibrated at 25° C. for 4 min. Then, ferrous (Fe^2+) ammonium sulfate (100 μM) was added to the solution for 1 min and the reaction was subsequently initiated by addition of BH4 ([…]) with DTT (5 mM) using a total volume of 100 μL. The reaction mixture was then vortexed for 60 s followed by sonication for 2 min prior to centrifugation for 10 s at 4 g and storage in a refrigerator (+4° C.). An aliquot (20 μL) was withdrawn from the quenched enzyme reaction and placed in a micro vial containing Me-Tyr as IS (100 μM) prior to CE analysis. The stability of the quenched enzyme reaction was confirmed by intermittent analysis of PAH activity over 6 h at room temperature, and no significant changes in the Tyr/IS or Phe/Tyr response ratio were measured. Enzymatic reactions were performed for both WT-PAH and two PAH mutants by pre-equilibrating each ligand for 10 min prior to addition of ferrous ion and BH4/DDT as described in enzyme reaction protocol in order to assess for ligand-induced PAH inhibition or activation.
as §1

PAH = biological target: T3, PAH (Homo sapiens, UniProt P00439); details: 100 μM; cited from earlier work
T3 sequence (P00439 1-452): T1 sequence (P00439 1-452)

Row | SMILES | increase in WT-PAH activity after refolding relative to ligand-free apo-PAH (WT-PAH) | activity enhancement of R261Q PAH mutant (R261Q PAH mutant; listed as HI) | shift of denaturation temperature relative to ligand-free enzyme (PAH) | activity enhancement of R261Q PAH mutant (R261Q PAH mutant)
1 | Nc1c(-c2ccc3ccccc3n2)c2ccc([N+](=O)[O-])cc2c(=O)n1Cc1ccccc1 [compound III, 3-amino-2-benzyl-7-nitro-4-(2-quinolyl)-1,2-dihydroisoquinolin-1-one] | about 5 fold | ~1.5 fold | greater than 14 °C | –
2 | Cc1ccnc(-n2c(=S)[nH]c3sc(C)c(C)c3c2=O)c1 [compound IV, 5,6-dimethyl-3-(4-methyl-2-pyridinyl)-2-thioxo-2,3-dihydrothieno[2,3-d] pyrimidin-4(1H)-one] | ~1.5 fold | – | > 7 °C | ~1.5 fold

Source: patent US10426751B2, “Allosteric activators for treatment of phenylketonuria” (MCMASTER UNIVERSITY, priority 2015, dated 2019)
